Experimental data: US11478441B2, “Treatment of disease with n-acetyl kynurenine” (AMPIO PHARMACEUTICALS, INC., priority 2016, dated 2022)

Experiment: Colorimetric (Ehrlich's reagent) detection of kynurenine-like molecules; thermal forced degradation / storage
Type: physicochemical
Text: The quantitation of kynurenine-like species in […] was detected using a modified method by Meyer et al. (“Suitability of recombinant Escherichia coli and Pseudomonas putida strains for selective biotransformation of m-nitrotoluene by xylene monooxygenase”, Appl Environ Microbiol 71 (2005) 6624-6632). The method is based on the reaction of p-dimethylamino-benzaldehyde (DMAB or Ehrlich's reagent) with primary aromatic amines to form yellow imines in acidic conditions. Briefly, […], […] or kynurenine standard (0-800 μM in 0.9% saline) was combined in triplicate with 100 μL Ehrlich's reagent in a 96-well plate. The plate was read at 492 nm using a SpectraMax M2 plate reader (Molecular Devices, Sunnyvale, Calif., USA). […] […] was incubated at ambient temperature or 80° C. for 6 days. Aliquots were collected at 0, 1, 2, 3, or 6 days and analyzed in triplicate for kynurenine-like molecules using the colorimetric assay described in Section 2.3. Also, 4 mM N-acetyl tryptophan in 0.9% saline was incubated at 80° C. for 6 days.

concentration of kynurenine-like molecules (4 mM in 0.9% saline heated at 80° C. for 6 days): 11.6 µM | levels of kynurenine-like molecules (4 mM in 0.9% saline, t=0): undetectable
Structure (SMILES): CC(=O)N[C@@H](Cc1c[nH]c2ccccc12)C(=O)O [NAT, N-acetyl tryptophan]
